Experimental data: patent US20060079453A1, “Hla binding peptides and their uses” (priority 2002, published 2006)
Where two headings read alike, the source gives them in different places. No end group written: not given here.

What was measured:
Experiment in all cases: biochemical
Assay type in all cases: binding
HLA-DR DRB1*1101 (DR11) = HLA-DR DRB1*1101 (DR11) (Homo sapiens, UniProt P01903+P01911, A100R/A169T/A87E/I96F/K41T/L162R/M171V/P40S/Q125H/Q178H/Q39Y/Q99D/R42S/S66Y/T262R/V115G/W38E)
HLA-DR DRB1*1302 (DR13) = HLA-DR DRB1*1302 (DR13) (Homo sapiens, UniProt P01903+P01911, A100E/A169T/K41T/L162R/M171V/P40S/Q125H/Q178H/Q39Y/Q99D/R42S/S66N/T262R/V115G/W38E/Y61H)
Chain of HLA-DR DRB1*1302 (DR13) (P01903 26-254 limits assumed, other chains not shown): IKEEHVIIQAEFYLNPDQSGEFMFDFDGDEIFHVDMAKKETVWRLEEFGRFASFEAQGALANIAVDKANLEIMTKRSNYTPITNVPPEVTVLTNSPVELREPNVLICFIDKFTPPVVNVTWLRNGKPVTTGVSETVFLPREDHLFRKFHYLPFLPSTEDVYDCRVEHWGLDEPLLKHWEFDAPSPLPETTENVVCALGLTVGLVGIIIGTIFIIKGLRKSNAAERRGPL

HLA-DR DRB1*1501 (DR15) = HLA-DR DRB1*1501 (DR15) (Homo sapiens, UniProt P01903+P01911)
HLA-DR DRB3*0101 (DR52) = HLA-DR DRB3*0101 (DR52) (Homo sapiens, UniProt P01903+P79483)
HLA-DR DRB4*0101 (DR53) = HLA-DR DRB4*0101 (DR53) (Homo sapiens, UniProt P01903+P13762, G164S)
HLA-DR DRB5*0101 (DR51) = HLA-DR DRB5*0101 (DR51) (Homo sapiens, UniProt P01903+Q30154)
HLA-DR DRB1*0301 (DR3) = HLA-DR DRB1*0301 (DR3) (Homo sapiens, UniProt P01903+P01911, A100K/A102G/A103R/A169T/F55Y/I96L/K41T/L162R/M171V/P40S/Q125H/Q178H/Q39Y/R42S/S66N/T106N/T262R/W38E/Y61H)
Chain of HLA-DR DRB1*0301 (DR3) (P01903 26-254 limits assumed, other chains not shown): as above

HLA-DR DRB1*0401 (DR4) = HLA-DR DRB1*0401 (DR4) (Homo sapiens, UniProt P01903+P01911, A100K/A169T/F76Y/I96L/K127E/L162R/M171V/N62H/P40V/Q125Y/R42H/S133A/S149N/S66Y/V115G/V209L/W38E); conditions: DRB1 *0401
HLA-DR DRB1*0701 (DR7) = HLA-DR DRB1*0701 (DR7) (Homo sapiens, UniProt P01903+P01911, A100R/A102G/A103Q/D57E/D86V/E43K/F76Y/K127E/L162R/M171V/P40G/Q125H/Q99D/R33Q/R42Y/R54Q/S133A/S66F/T210M/V115G/Y107V/Y59L/Y89S); conditions: DRB1 *0701
HLA-DR DRB1*0101 (DR1) = HLA-DR DRB1*0101 (DR1) (Homo sapiens, UniProt P01903+P01911, A100R/D57E/F55L/F60I/F76Y/I96L/L162R/M171V/P40L/Q125E/R42F/V115G/Y59C); conditions: DRB1 *0101
HLA-DR DRB1*0901 (DR9) = HLA-DR DRB1*0901 (DR9) (Homo sapiens, UniProt P01903+P01911, A100R/A103E/D57H/D86V/F55Y/F60I/F76Y/I96F/K127E/L162R/M171V/P40D/Q125H/Q99R/R33Q/R42F/S133A/S66N/T210M/V115G/W38K/Y107V/Y59G/Y89S); conditions: DRB1 *0901

Chain of HLA-DR DRB1*1101 (DR11) (P01903 26-254 limits assumed, other chains not shown): as above

Row | Compound | IC50 (HLA-DR DRB1*1101 (DR11); DRB1 *1101) [µM] | IC50 (HLA-DR DRB3*0101 (DR52)) [µM] | IC50 (HLA-DR DRB4*0101 (DR53); DRB4 *0101) [µM] | IC50 (HLA-DR DRB5*0101 (DR51); DRB5 *0101) [µM] | IC50 (HLA-DR DRB1*0301 (DR3)) [µM] | IC50 (HLA-DR DRB1*0401 (DR4)) [µM] | IC50 (HLA-DR DRB1*0701 (DR7)) [µM] | also measured
1 | YLVCGERGFFYTKPT | > 60.6 | 12.8 | 40.4 | > 28.4 |  |  |  | IC50 (HLA-DR DRB1*1302 (DR13); DRBI *1302): 3.47 µM; IC50 (HLA-DR DRB1*1501 (DR15); DRBI *1501): > 25.6 µM
2 | GAGPKDNGGACGYKDVDKAP |  | > 20 |  |  | > 30 | > 0.667 | > 12.5 | 
3 | CC(C)C[C@H](NC(=O)CNC(=O)[C@H](CC(N)=O)NC(=O)[C@H](Cc1ccc(O)cc1)NC(=O)[C@@H](NC(=O)[C@H](CC(=O)O)NC(=O)[C@H](CC(C)C)NC(=O)[C@H](C)N)C(C)C)C(=O)N[C@@H](CC(C)C)C(=O)N1CCC[C@H]1C(=O)N1CCC[C@H]1C(=O)N[C@@H](Cc1ccc(O)cc1)C(=O)N[C@@H](C)C(=O)N[C@@H](CO)C(=O)N[C@@H](CS)C(=O)O |  | > 15 | > 10.1 | 115 |  | 0.485 | > 83.3 | IC50 (HLA-DR DRB1*0101 (DR1)): 0.018 µM; IC50 (HLA-DR DRB1*0901 (DR9)): 86.6 µM; IC50 (HLA-DR DRB1*1302 (DR13); DRBI *1302): > 35 µM; IC50 (HLA-DR DRB1*1501 (DR15); DRBI *1501): 1.09 µM
4 | GGVLVNEILNHMKRA |  |  |  |  |  |  |  | IC50 (HLA-DR DRB1*1101 (DR11); read-out: DRB1 *1101): 0.255 µM; IC50 (HLA-DR DRB1*1302 (DR13); read-out: DRBI *1302): 0.049 µM; IC50 (HLA-DR DRB1*1501 (DR15); read-out: DRBI *1501): 0.576 µM; IC50 (HLA-DR DRB3*0101 (DR52); read-out: DRB3 *0101): 8.12 µM; IC50 (HLA-DR DRB4*0101 (DR53); read-out: DRB4 *0101): 0.0058 µM; IC50 (HLA-DR DRB5*0101 (DR51); read-out: DRB5 *0101): 0.0087 µM
5 | AKSTWYGKPTGAGPKDNGGA |  | > 20 | 10 |  | > 30 |  | > 12.5 | 
6 | CC[C@H](C)[C@H](NC(=O)[C@H](Cc1ccccc1)NC(=O)[C@H](C)NC(=O)[C@H](CCCNC(=N)N)NC(=O)[C@H](CCC(=O)O)NC(=O)[C@H](CC(C)C)NC(=O)[C@H](Cc1ccccc1)NC(=O)[C@H](CCSC)NC(=O)[C@H](CC(C)C)NC(=O)[C@H](CCC(N)=O)NC(=O)[C@@H](N)CC(=O)O)C(=O)N[C@@H](CC(=O)O)C(=O)N1CCC[C@H]1C(=O)N[C@@H](CC(C)C)C(=O)NCC(=O)O |  | 17.1 | 0.0066 |  | > 19.7 |  |  | 
7 | YGRILHYLKAKEDSH [YORILHYLKAKBDSH] | 0.812 | 455 | 0.14 | 0.039 |  |  |  | IC50 (HLA-DR DRB1*1302 (DR13); DRBI *1302): 2.78 µM; IC50 (HLA-DR DRB1*1501 (DR15); DRBI *1501): 0.016 µM
8 | IAKVPPGPNITAEYGDKWLD |  | > 20 |  |  | > 30 | > 0.667 | > 12.5 | 
9 | DIAAKYKELGY | > 10 | > 25 |  | ≥ 200 | > 900 | > 0.471 |  | 
10 | QAKKEKLNIWSEDNADSGQ |  | > 5.56 |  |  | > 900 |  | > 250 | 
11 | TPDKLTGPFTVRYTTEGGTK |  | > 25 |  |  | > 900 | > 0.667 | > 12.5 | 
12 | AFGSMAKKGEEQNVRSAGEL | 1.82 | > 33.3 |  |  | > 30 | > 0.667 | > 12.5 | 
13 | LPSWATEDTMTKIRE |  |  |  |  |  |  |  | IC50 (HLA-DR DRB1*1101 (DR11); read-out: DRB1 *1101): > 66.7 µM; IC50 (HLA-DR DRB1*1302 (DR13); read-out: DRBI *1302): > 35 µM; IC50 (HLA-DR DRB1*1501 (DR15); read-out: DRBI *1501): > 45.5 µM; IC50 (HLA-DR DRB3*0101 (DR52); read-out: DRB3 *0101): 5.97 µM; IC50 (HLA-DR DRB4*0101 (DR53); read-out: DRB4 *0101): > 11.1 µM
